The source of these data is US20040039040A1, “Urea derivative and adhesive-molecule inhibitor containing the same as active ingredient” (priority 2000, published 2004).

In general, melting point refers to the temperature, or range, at which the solid turns liquid. The IC50 is the point on the concentration scale where inhibition reaches its midpoint. Higher therefore signals lower potency.

VLA-4-IgG chimera protein, sequence (P13612 with tags, fused parts or gaps limits assumed): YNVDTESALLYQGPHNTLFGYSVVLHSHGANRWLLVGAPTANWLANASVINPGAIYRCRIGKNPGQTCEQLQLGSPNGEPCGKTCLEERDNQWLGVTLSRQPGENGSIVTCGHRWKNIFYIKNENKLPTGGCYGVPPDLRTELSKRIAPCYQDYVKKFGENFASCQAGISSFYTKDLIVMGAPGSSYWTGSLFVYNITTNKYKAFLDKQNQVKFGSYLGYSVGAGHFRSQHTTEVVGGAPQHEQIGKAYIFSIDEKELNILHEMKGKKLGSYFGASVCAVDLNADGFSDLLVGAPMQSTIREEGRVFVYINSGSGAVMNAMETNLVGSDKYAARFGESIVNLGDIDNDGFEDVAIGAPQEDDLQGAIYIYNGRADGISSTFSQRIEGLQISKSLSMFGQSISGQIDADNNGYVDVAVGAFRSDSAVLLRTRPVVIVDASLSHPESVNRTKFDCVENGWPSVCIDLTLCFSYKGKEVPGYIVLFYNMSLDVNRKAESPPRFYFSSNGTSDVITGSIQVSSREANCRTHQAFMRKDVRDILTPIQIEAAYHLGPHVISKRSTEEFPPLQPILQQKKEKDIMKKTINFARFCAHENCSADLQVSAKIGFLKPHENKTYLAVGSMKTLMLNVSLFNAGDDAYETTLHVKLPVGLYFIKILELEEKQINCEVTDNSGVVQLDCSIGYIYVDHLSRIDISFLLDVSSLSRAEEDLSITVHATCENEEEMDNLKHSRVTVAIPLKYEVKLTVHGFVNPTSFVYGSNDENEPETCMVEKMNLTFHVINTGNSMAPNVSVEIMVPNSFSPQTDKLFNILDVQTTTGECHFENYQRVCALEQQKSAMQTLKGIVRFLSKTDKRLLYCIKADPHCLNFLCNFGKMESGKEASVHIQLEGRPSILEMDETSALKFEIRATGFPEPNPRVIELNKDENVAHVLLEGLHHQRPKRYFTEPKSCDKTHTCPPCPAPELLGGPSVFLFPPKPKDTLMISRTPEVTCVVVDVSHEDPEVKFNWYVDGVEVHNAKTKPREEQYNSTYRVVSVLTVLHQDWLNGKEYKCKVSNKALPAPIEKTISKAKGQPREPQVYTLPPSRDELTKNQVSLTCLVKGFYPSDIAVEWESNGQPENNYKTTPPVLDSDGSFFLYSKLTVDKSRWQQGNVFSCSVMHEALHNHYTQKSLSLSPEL
VLA-4-IgG chimera protein, sequence (P05556 with tags, fused parts or gaps limits assumed): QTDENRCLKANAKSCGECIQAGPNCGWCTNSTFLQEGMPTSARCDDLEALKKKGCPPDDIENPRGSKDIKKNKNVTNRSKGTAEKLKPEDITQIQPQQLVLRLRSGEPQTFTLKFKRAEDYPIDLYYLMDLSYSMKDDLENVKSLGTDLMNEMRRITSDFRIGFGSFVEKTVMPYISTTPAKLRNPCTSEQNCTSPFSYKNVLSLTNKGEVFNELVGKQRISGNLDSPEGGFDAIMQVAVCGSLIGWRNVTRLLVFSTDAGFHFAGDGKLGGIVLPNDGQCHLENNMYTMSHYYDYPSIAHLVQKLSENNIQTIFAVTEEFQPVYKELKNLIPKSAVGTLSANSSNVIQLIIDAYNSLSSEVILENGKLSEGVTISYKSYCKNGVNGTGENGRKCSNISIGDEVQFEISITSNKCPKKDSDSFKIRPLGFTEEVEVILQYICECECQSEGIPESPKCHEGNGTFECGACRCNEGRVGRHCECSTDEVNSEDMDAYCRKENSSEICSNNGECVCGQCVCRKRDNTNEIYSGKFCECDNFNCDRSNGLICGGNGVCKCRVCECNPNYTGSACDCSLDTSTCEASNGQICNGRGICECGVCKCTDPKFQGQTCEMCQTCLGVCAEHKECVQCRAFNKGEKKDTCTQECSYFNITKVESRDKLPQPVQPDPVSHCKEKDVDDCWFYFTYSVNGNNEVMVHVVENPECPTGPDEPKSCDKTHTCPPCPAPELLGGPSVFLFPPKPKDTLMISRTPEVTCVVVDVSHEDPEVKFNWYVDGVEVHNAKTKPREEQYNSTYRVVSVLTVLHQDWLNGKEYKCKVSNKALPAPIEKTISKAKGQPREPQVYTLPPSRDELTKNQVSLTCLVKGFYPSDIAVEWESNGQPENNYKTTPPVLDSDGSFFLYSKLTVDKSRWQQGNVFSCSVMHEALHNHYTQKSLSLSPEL

System in the first data set: not given
Assay: not given
Conditions: not given
With `O=C(Nc1ccc(C[C@@H](C(=O)O)N2C(=O)NC3(CCCCC3)C2=O)cc1)c1c(Cl)cccc1Cl` [Compound 44], the melting point turned out to be 250 °C.

With `O=C(N[C@@H](Cn1ccc(NC(=O)c2c(Cl)cccc2Cl)nc1=O)C(=O)O)NC1(C(=O)Nc2ccccc2)CCCCC1` [Compound 8, 3-(4-((2,6-dichlorophenyl)carbonylamino)-2-oxohydropyrimidinyl)-2-((((N-phenylcarbamoyl)cyclohexyl)amino)carbonylamino)propanoic Acid], the melting point is 193 to 195 °C.

For the next data set, the target named is VLA-4-IgG chimera protein (Homo sapiens, UniProt P05556+P13612). The experiment in a line: Inhibitory effect against binding between CS-1 peptide and VLA-4-IgG chimera protein. As to conditions: binding of VLA-4-IgG chimera protein to immobilized CS-1 peptide-rabbit IgG conjugate; compound preincubated 20 min; 30° C. 3 hours; absorbance at 490 nm. The procedure:
The inhibitory activity of the compound according to the present invention against the adhesion of VLA-4 may be determined by using an adhesion-measuring system in which the adhesion between VLA-4-expressing cells such as Ramos cells or Jurkat cells and fibronectin or fibronectin fragment such as a peptide containing CS-1 sequence (Gly Pro Glu Ile Leu Asp Val Pro Ser Thr) (hereinafter referred to as “CS-1 peptide”), immobilized on an immunoplate is measured. Alternatively, a binding-measuring system in which the adhesion between VLA-4 protein and fibronectin or fibronectin fragment such as CS-1 peptide, immobilized on an immunoplate may be used. In the present invention, it is preferred to evaluate the inhibitory activity of a compound using a binding-measuring system in which adhesion between a chimera protein of VLA-4-immunoglobulin (VLA-4-IgG chimera protein) and CS-1 peptide (Japanese Patent Application No. H9-234544), but the method is not restricted thereto. The “VLA-4-IgG chimera protein” herein means the heterodimer complex of the chimera protein between α4 of VLA-4 and immunoglobulin (hereinafter referred to as “VLAα4-IgG chimera protein”) and a chimera protein between β1 of VLA-4 and immunoglobulin (hereinafter referred to as “VLAβ1-IgG chimera protein”). As the immunoglobulin, although heavy chain or light chain of IgG, IgM or the like may be used, IgG1 heavy chain is used in the present invention. When testing the inhibitory effect of a compound, it is preferred to mix VLA-4-IgG chimera protein and the test compound previously.
In accordance with the teaching of a report (Humphrise, M. J. et al. J.Bio.Chem., 262,6886-6892(1987)), a conjugate between a peptide (Gys Leu His Gly Pro Glu Glu Ile Leu Asp Val Pro Ser Thr) containing CS-1 sequence and rabbit IgG (Sigma) was prepared. This was diluted with phosphate buffer (hereinafter referred to as “PBS(−)” for short), and the obtained solution was placed in the wells of a 96-well immunoplate (NUNC) in an amount of 100 μl/well, followed by leaving to stand the immunoplate at 4° C. for 16 hours to immobilize the conjugate.
The wells were then washed twice with PBS(−), and 1% BSA solution in PBS, which BSA was heated at 80° C. for 10 minutes, was placed in each well in an amount of 300 μl/well. The immunoplate was left to stand at 4° C. for 3 hours, and then the solution in each well was removed by suction.
Each compound and VLA-4-IgG chimera protein (100 μl) were preliminarily reacted at room temperature for 20 minutes, and then the resulting mixture was allowed to react with the CS-1 peptide in each well at 30° C. for 3 hours. Thereafter, non-bound VLA-4-IgG chimera protein was removed by suction, and each well was washed twice with 0.1% BSA-containing TBS buffer (150 mM NaCl, 25 mM Tris-HCl, 1 mM MnCl2, PH7.4). To the bound VLA-4-IgG chimera protein, biotin-labelled anti-human IgG antibody (Vector) as a primary antibody was added, and then avidin-labelled horse radish peroxidase (Sigma) as a secondary antibody was added, thereby allowing the reactions. Then o-phenylenediamine as a substrate was added to color the reaction solution, and the absorbance at 490 nm was measured. From this absorbance, the binding inhibitory activity of each compound was determined.
`CC(=O)NC1(c2ccccc2)CCN(C(=O)N[C@@H](Cn2ccc(NC(=O)c3c(Cl)cccc3Cl)nc2=O)C(=O)O)CC1` [Compound 37] registered an IC50 of 3.5 nM. Same read-out and setting: the result for `O=C(Nc1ccn(C[C@H](NC(=O)N2CCC3(CC2)C(=O)NCN3c2ccccc2)C(=O)O)c(=O)n1)c1c(Cl)cccc1Cl` [Compound 35] reads 2.4 nM; that for `CS(=O)(=O)N1CC2(CCN(C(=O)N[C@@H](Cn3ccc(NC(=O)c4c(Cl)cccc4Cl)nc3=O)C(=O)O)CC2)c2ccccc21` [Compound 28, 3-(4-((2,6-dichlorophenyl)carbonylamino)-2-oxohydropyrimidinyl)-2-((1-(methylsulfonyl)spiro[indoline-3,4′-piperidin]-10-yl)carbonylamino)propanoic Acid], 3.8 nM; that for `C[C@@H]1CCC[C@H](C)N1C(=O)N[C@@H](Cn1ccc(NC(=O)c2c(Cl)cccc2Cl)nc1=O)C(=O)O` [Compound 50, 3-(4-((2,6-dichlorophenyl)carbonylamino)-2-oxohydropyrimidinyl)-2-((2,6-dimethylpiperidyl)carbonylamino)propanoic Acid], 4.5 nM.

In turn, `O=C(Nc1ccn(C[C@H](NC(=O)N2CCC(n3c(=O)[nH]c4ccccc43)CC2)C(=O)O)c(=O)n1)c1c(Cl)cccc1Cl` [Compound 32, 3-(4-((2,6-dichlorophenyl)carbonylamino)-2-oxohydropyrimidinyl)-2-((4-(2-oxo-3-azaindolinyl)piperidyl)carbonylamino)propanoic Acid] came in with an IC50 of 0.97 nM.
